The values below come from patent publication US20250179033A1 (priority 2021, published 2025).

Where two headings read alike, the source gives them in different places.

One data set can be described thus: Kinetic solubility. Type of data set: physicochemical. Conditions: Universal Aqueous buffer pH 7.4. The procedure:
Kinetic Solubility: 396 μL of Universal Aqueous buffer (pH 7.4) was added to 4 μL of a 50 mM DMSO stock solution of each compound. Wells were agitated for 4 hours at 20° C. and then filtered. The compound was then diluted to serial concentrations with DMSO, followed by serial dilutions with ACN:H2O (1:1) prior to liquid chromatography-mass spectroscopy (LCMS) analysis. The calculated concentration (μM) of soluble compound was determined in reference to a standard curve.

The target in a further data set is CYP2D6 (Homo sapiens, UniProt P10635). The experiment in a line: Human CYP inhibition in human liver microsomes. The class given is in vitro ADME. The procedure:
(§1) Study samples (containing either control inhibitor or test compound) were added into the tubes, vortexed gently and pre-incubated for 5 min at 37° C. 20 μL of NADPH solution was aliquoted into all tubes, then vortexed to start the reaction and to assure adequate mixture of the NADPH. After mixing, the tubes were incubated for 20 min at 37° C. in a shaking water bath and then quenched in […] formic acid/acetonitrile solution. After quenching, the samples were vortexed vigorously for 1 min and centrifuged at 4,000 rpm for 15 min (4° C.). 100 μL of supernatant was transferred to 0.65 ml tubes for LCMS analysis by the bioanalytical method described earlier. The CYP450 substrates and control inhibitors for each enzyme was as follows: CYP1A2 (phenacetin, naphthoflavone), CYP2C9 (diclofenac, sulfaphenazole), CYP2C19 (omeprazole, tranylcypromine), CYP2D6 (dextromethorphan, quinidine), CYP3A4 (midazolam, ketoconazole).

Another data set concerns the target CYP3A4 (Homo sapiens, UniProt P08684). The experiment in a line: Human CYP inhibition in human liver microsomes. The class given is in vitro ADME. The procedure:
as §1

Data set [1] concerns HIV-1 IIIB A17 variant (Y181C/K103N). The experiment in a line: HIV inhibition assay in TZM-bl cells, A17 variant. The class given is cell-based. The method, boiled down: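 TZM-bl cells with 15 μg/mL DEAE-dextran were infected with H9-grown HIV-1 IIIB, wild-type or A17 (Y181C/K103N), in the presence of compound (0.005% or 0.05% DMSO) for 48 h at 37 °C. Luciferase RLU was read after lysis. Toxicity was measured in parallel by CellTiter-Blue fluorescence.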

A further data set is described as follows: in vitro. Type of data set: in vitro ADME, mouse. The procedure:
Protein Binding in Plasma: The donor side of dialysis inserts were filled with 200 μL plasma (human and mouse; source BioDuro, San Diego, California, United States of America) containing 5 μM drug and 0.5% of DMSO and the receiver side of the dialysis inserts was filled with 350 μL of PBS buffer (100 mM, pH 7.4). The prepared dialysis apparatus was placed in a shaker (37° C., 100 rpm) for 5 hours. Two tubes with plasma containing 5 μM experimental compound were also prepared for stability test: one tube was placed in the […] for 5 hours and the other tube was placed in shaker ([…], 100 rpm) for 5 hours. Samples were collected from the donor and receiver sides of each dialysis insert. The same volume of blank plasma was added to buffer samples and blank buffer to plasma samples to make sure all sample mixtures contain 50% plasma and 50% buffer. 50 μL of each sample was mixed with 300 μL of acetonitrile containing 25 ng/ml internal standard (propranolol). All samples were vortexed for 1 minute and then centrifuged at 4000 rpm, 4° C. for 15 min. 100 μL of the supernatant was transferred to 0.65 ml tube for LCMS analysis. The amount of compound was determined on the basis of the peak area ratio (compound area to internal standard area) for the two sides, and protein binding is determined using the following equations: % Bound=100×([Area Ratio of Donor]5h*5−[Area Ratio of Receiver]5h)/([Area Ratio of Donor]5h*5). The percentage remaining at 37° C. after 5 hours was calculated on the basis of the amount measured at 0° C. after 5 hours.

[2] abbreviates: Human immunodeficiency virus 1, IIIB, TZM-bl, read-out: IC50 (TZM, A17), Table 3, TZM-bl, ± SEM, minimum 6 replicates.
Where [3] appears, read: Human immunodeficiency virus 1, IIIB, TZM-bl, read-out: IC50 (TZM, A17), Table 4, TZM-bl.

CYP2D6, sequence (P10635 whole entry): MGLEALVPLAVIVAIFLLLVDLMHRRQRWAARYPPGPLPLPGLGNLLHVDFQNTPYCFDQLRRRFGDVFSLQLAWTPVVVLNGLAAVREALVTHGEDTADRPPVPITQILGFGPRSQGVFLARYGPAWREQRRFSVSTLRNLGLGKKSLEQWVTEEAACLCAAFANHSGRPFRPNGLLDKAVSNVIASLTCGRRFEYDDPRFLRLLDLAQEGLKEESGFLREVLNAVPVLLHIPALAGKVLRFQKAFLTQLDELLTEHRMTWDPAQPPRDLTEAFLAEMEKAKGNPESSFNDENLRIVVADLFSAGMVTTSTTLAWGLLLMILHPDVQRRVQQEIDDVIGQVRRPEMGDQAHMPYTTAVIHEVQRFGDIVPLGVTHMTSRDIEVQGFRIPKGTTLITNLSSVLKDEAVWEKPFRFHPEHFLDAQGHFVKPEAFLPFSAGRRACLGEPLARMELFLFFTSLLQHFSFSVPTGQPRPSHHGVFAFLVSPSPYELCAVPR
CYP3A4, sequence (P08684 whole entry): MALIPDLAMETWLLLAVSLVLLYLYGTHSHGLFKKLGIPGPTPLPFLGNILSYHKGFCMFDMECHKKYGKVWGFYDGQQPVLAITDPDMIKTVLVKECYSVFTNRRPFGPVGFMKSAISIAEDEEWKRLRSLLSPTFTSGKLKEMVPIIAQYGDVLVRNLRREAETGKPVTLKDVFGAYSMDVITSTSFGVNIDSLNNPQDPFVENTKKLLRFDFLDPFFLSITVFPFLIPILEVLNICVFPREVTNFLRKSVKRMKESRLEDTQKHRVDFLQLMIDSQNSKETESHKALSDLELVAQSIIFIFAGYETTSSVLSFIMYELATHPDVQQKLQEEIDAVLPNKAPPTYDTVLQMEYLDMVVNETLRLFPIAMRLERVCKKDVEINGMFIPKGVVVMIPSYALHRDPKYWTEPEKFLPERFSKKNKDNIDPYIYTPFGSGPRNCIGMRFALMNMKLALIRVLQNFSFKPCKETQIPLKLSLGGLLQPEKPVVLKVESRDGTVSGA

For the compound `Nc1nc(Nc2ccc(Cl)cc2)nn1S(=O)(=O)c1ccc2ccccc2c1` [Compound 1, N3-(4-chlorophenyl)-1-(2-naphthylsulfonyl)-1,2,4-triazole-3,5-diamine], the solubility at 4 h in “Kinetic solubility” was less than 0.2 µM. Also, the IC50 was more than 50 µM against CYP2D6, more than 50 µM against CYP3A4, more than 1000 nM in data set [1] (setting [2]) and more than 1000 nM in data set [1] (setting [3]). For the same compound, the “Mouse plasma protein binding” value in the data set “in vitro” (5 μM, dialysis 5 hours) is listed as more than 99.9%.
In “Kinetic solubility” (20 °C, kinetic from dmso stock), `N#C/C=C/c1ccc2c(S(=O)(=O)n3nc(Nc4ccc(C#N)c(Cl)c4)nc3N)cccc2c1` [Compound 20, 4-[[5-amino-1-[[6-[2-cyanovinyl]-1-naphthyl]sulfonyl]-1,2,4-triazol-3-yl]amino]-2-chloro-benzonitrile] had a solubility at 4 h of less than 0.2 µM. In addition, the IC50 is more than 50 µM at CYP2D6 (human liver microsomes, substrate dextromethorphan, read-out: CYP inhibition IC50, 2D6); 31.3 µM on CYP3A4 (human liver microsomes, substrate midazolam, read-out: CYP inhibition IC50, 3A4); 0.689 ± 0.143 nM in data set [1] (setting [2]); 45.4 nM in data set [1] (setting [3]). Besides, the “activity against the A17 variant, in words” value in data set [1] is reported as “retained potent activity”. Also, the EC50 in data set [1] (Human immunodeficiency virus 1, IIIB, TZM-bl, read-out: activity against the A17 double mutant (Y181C/K103N), EC50) was determined as 1.86 nM. The same compound yielded a half-life at 5 μM in the data set “in vitro” (mouse, plasma) of more than 373 min. Further, the fraction unbound in “in vitro” (mouse, plasma, pH 7.4, 5 μM, dialysis 5 hours, read-out: Mouse plasma protein binding) is less than 0.001.
